Measured values reported in the NIST ThermoML archive (doi:10.1021/je049893r).

Settings: Liquid, Vibrating tube method

CCCCOCCOCCO [3,6-dioxa-1-decanol]
mass density [kg/m3]
Settings | 100 kPa | 1000 kPa | 2500 kPa | 5000 kPa | 7500 kPa | 10000 kPa | 15000 kPa | 20000 kPa | 25000 kPa
283.15 K | 960.5 | 961 | 961.9 | 963.4 | 964.9 | 966.3 | 969.1 | 971.8 | 974.4
293.15 K | 952.2 | 952.7 | 953.7 | 955.2 | 956.7 | 958.2 | 961.1 | 963.9 | 966.7
303.15 K | 943.8 | 944.3 | 945.3 | 946.9 | 948.5 | 950.1 | 953.1 | 956.1 | 959
313.15 K | 935.3 | 935.9 | 936.9 | 938.6 | 940.3 | 941.9 | 945.1 | 948.2 | 951.2
323.15 K | 926.6 | 927.2 | 928.3 | 930.1 | 931.8 | 933.5 | 936.9 | 940.1 | 943.2
333.15 K | 917.8 | 918.5 | 919.7 | 921.6 | 923.4 | 925.2 | 928.7 | 932 | 935.2
343.15 K | 909.7 | 910.4 | 911.6 | 913.6 | 915.5 | 917.4 | 921.1 | 924.6 | 928
353.15 K | 900.9 | 901.7 | 903 | 905 | 907.1 | 909.1 | 912.9 | 916.6 | 920.1

CCCOCC(C)O (centres undefined) [1-propoxy-2-propanol]
mass density [kg/m3]
Settings | 100 kPa | 1000 kPa | 2500 kPa | 5000 kPa | 7500 kPa | 10000 kPa | 15000 kPa | 20000 kPa | 25000 kPa
283.15 K | 895.1 | 895.7 | 896.7 | 898.5 | 900.1 | 901.8 | 905 | 908.1 | 911.1
293.15 K | 886 | 886.6 | 887.7 | 889.6 | 891.3 | 893.1 | 896.5 | 899.8 | 902.9
303.15 K | 876.4 | 877.2 | 878.4 | 880.3 | 882.2 | 884 | 887.6 | 891.1 | 894.4
313.15 K | 866.9 | 867.6 | 868.9 | 871 | 873 | 875 | 878.8 | 882.4 | 885.9
323.15 K | 857.2 | 858 | 859.3 | 861.4 | 863.5 | 865.6 | 869.6 | 873.5 | 877.2
333.15 K | 847.1 | 847.9 | 849.3 | 851.7 | 853.9 | 856.1 | 860.3 | 864.3 | 868.1
343.15 K | 837.5 | 838.4 | 840 | 842.4 | 844.9 | 847.2 | 851.8 | 856 | 860.1
353.15 K | 827.3 | 828.3 | 829.9 | 832.6 | 835.2 | 837.7 | 842.5 | 847 | 851.3
